Test results: paper PMC7355942, “Cytotoxicity Evaluation of Novel bis(2-aminoethyl)amine Derivatives” (Molecules, 2020)

Columns and labels:
[1] = system: HaCaT cells (immortal keratinocytes); assay: MTT cytotoxicity assay, HaCaT normal cells; format: cell-based, human; settings: mean ± SD
Description: (§1) All derivatives of bis(2-aminoethyl)amine were screened for their in vitro cytotoxic activity against a panel of human cancer cell lines, namely colorectal adenocarcinoma (CaCo-2), epithelial lung carcinoma (A549), and melanoma (HTB-140), which is contrary to normal (HaCaT) cell lines, by using the MTT method.
(§2) Description related to conducted biological studies including cell culture, suitable conditions, and methodology was presented in our previous paper.

HTB-140 cells (melanoma) = assay: MTT cytotoxicity assay, HTB-140; format: cell-based, human; settings: for IC50: HTB-140, MTT, mean ± SD; for SI (Selectivity Index): IC50 for normal cell line (HaCaT)/IC50 HTB-140
Description: as §1, §2

[2] = system: A549 cells (epithelial lung carcinoma); assay: MTT cytotoxicity assay, A549; format: cell-based, human; settings: for IC50: A549, MTT, mean ± SD; for SI (Selectivity Index): IC50 for normal cell line (HaCaT)/IC50 A549
Description: as §1, §2

[3] = system: CaCo-2 cells (colorectal adenocarcinoma); assay: MTT cytotoxicity assay, CaCo-2; format: cell-based, human; settings: for IC50: Homo sapiens, CaCo-2, MTT, mean ± SD; for SI (Selectivity Index): IC50 for normal cell line (HaCaT)/IC50 CaCo-2
Description: as §1, §2

[4] = system: panel of human cancer cell lines (CaCo-2, A549, HTB-140) and normal HaCaT cells; assay: MTT cytotoxicity assay, statements over the whole cell panel; format: cell-based; settings: for antiproliferative / cytotoxic activity in words: chosen cancer and normal cell lines; for IC50: Homo sapiens, all cancer cell lines (CaCo-2, A549, HTB-140), read-out: IC50, range over cancer cell lines
Description: as §1, §2

A549 cells = assay: Apoptosis, Annexin V-FITC/7-AAD flow cytometry, A549; format: cell-based, human; settings: A549, IC50 concentration, 72 h
Experimental: (§3) To establish in vitro, the anti-proliferative mechanism of activity, the influence of bis(2-aminoethyl)amine derivatives on early and late apoptosis was performed, using flow cytometry analysis (Figure 7).
as §2
(§4) Figure 7 The effect of derivatives 3–6 on early and late apoptosis, or necrosis in HaCaT, CaCo-2, A549, and HTB-140 cells. Cells were incubated for 72 h with tested compounds and used in their IC50 concentrations. Then cells were harvested, stained with Annexin V-FITC and 7-AAD, and analyzed using flow cytometry. Data are expressed as the percentage of cells at an early stage of apoptosis or late stage of apoptosis or necrosis. Data are given as means ± SD, *** p ≤ 0.001, ** p ≤ 0.01, as compared to the control.
Figure 8 The effect of compounds 3–6 on early and late apoptosis or necrosis in A549 cells, detected with Annexin V-FITC/7-AAD by flow cytometry. […] The upper right and upper left quadrants represent the late stage of apoptotic or necrotic cells (Annexin V-FITC positive, 7-AAD positive, Annexin V-FITC negative and 7-AAD positive staining, respectively). The lower left quadrant represents unstained A549 cells (Annexin V-FITC negative, 7-AAD negative). TEXT PRINTED IN THE PICTURE: 3: 0,1; 26,6; 36,9; 36,5 | 4: 0,1; 23,4; 47,2; 29,3 | 5: 0,2; 42,5; 28,4; 28,9 | 6: 0,2; 37,6; 19,5; 42,7 DOUBTS OF THE COPYIST ABOUT THIS PICTURE: 3, lower left quadrant value: 36,9, printed over the dot cloud, so the digits 6 and 9 are not fully certain / 6, lower left quadrant value: 19,5, partly printed over the dot cloud, so the digits 9 and 5 are not fully certain / The quadrant numbers are printed with no measure or unit. They are listed in the order upper left, upper right, lower left, lower right / The Control plot (0,1; 5,2; 87,4; 7,3) was left out because it is not a substance

[5] = system: interleukin-6 (IL-6) release, A549 cells; assay: Interleukin-6 assay (ELISA), A549; format: cell-based, human; settings: A549, IC50 dose
Description: (§5) The mechanism of cytotoxic action of bis(2-aminoethyl)-amine derivatives can be associated with reducing interleukin-6 (IL-6) levels, which include the strong pro-inflammatory particles.
as §2
(§6) Figure 9 Effects of compounds 3–6 on IL-6 levels, measured by the ELISA test. Data are expressed as the mean ± SD from three independent experiments, performed in triplicate. *** p ≤ 0.001, ** p ≤ 0.01, * p ≤ 0.05, as compared to the control.

[6] = system: HaCaT cells (normal keratinocytes); assay: Lactate dehydrogenase (LDH) release assay, HaCaT; format: cell-based, human; settings: 72 h
Experimental: (§7) Lactate dehydrogenase assay (LDH) as a marker of cell death was evaluated for synthesized ethylthioureas 1–7. The compounds were tested at concentrations of 10, 50, and 100 µM. At the lowest dose, no activity was observed.
as §2
(§8) Figure 6 LDH release as a marker of a cell death in the HaCaT, HTB-140, CaCo-2, A549 cells, treated for 72 h with various concentrations of derivatives 3–6 (100 µM for compounds 3–5, 100 and 50 µM for 6). Data are expressed as the mean ± SD from three independent experiments, performed in triplicate. *** p ≤ 0.001, ** p ≤ 0.01, as compared to the control.

HTB-140 cells = assay: Apoptosis, Annexin V-FITC/7-AAD flow cytometry, HTB-140; format: cell-based, human; settings: HTB-140, IC50 concentration, 72 h
Experimental: as §3, §2, §4

CaCo-2 cells = assay: Apoptosis, Annexin V-FITC/7-AAD flow cytometry, CaCo-2; format: cell-based, human; settings: CaCo-2, IC50 concentration, 72 h
Experimental: as §3, §2, §4

[7] = system: HaCaT, HTB-140, CaCo-2, A549 cells; assay: Lactate dehydrogenase (LDH) release assay, statements over several cell lines; format: cell-based, human; settings: pathological cell lines (HTB-140, CaCo-2, A549), 50 µM, 72 h
Experimental: as §7, §2, §8

[8] = system: interleukin-6 (IL-6) secretion, HTB-140 cells; assay: Interleukin-6 assay (ELISA), HTB-140; format: cell-based, human; settings: HTB-140, IC50 dose
Description: as §5, §2, §6

N.N.[Cl][Pt][Cl] [Cisplatin, reference compound]
IC50 [1]: 2.84 ± 1.06 µM
IC50 (HTB-140 cells (melanoma)): 1.13 ± 0.19 µM
IC50 [2]: 1.95 ± 0.83 µM

COc1ccc(NC(=S)NCCN(CCNC(=S)Nc2ccc(OC)cc2)C(=S)Nc2ccc(OC)cc2)cc1 [Compound 1, 3-(4-methoxyphenyl)-1,1-bis{2-[3-(4-methoxyphenyl)-thioureido]ethyl}thiourea]
IC50 ([1]; Homo sapiens): > 100 µM
IC50 [3]: > 100 µM
antiproliferative / cytotoxic activity in words [4]: biologically inactive
IC50 (HTB-140 cells (melanoma); Homo sapiens): > 100 µM
IC50 ([2]; Homo sapiens): > 100 µM

S=C(NCCN(CCNC(=S)Nc1ccccc1)C(=S)Nc1ccccc1)Nc1ccccc1 [Compound 2, 3-phenyl-1,1-bis[2-(3-phenylthioureido)ethyl]thiourea]
IC50 ([1]; Homo sapiens): > 100 µM
IC50 [3]: > 100 µM
antiproliferative / cytotoxic activity in words [4]: biologically inactive
IC50 (HTB-140 cells (melanoma); Homo sapiens): > 100 µM
IC50 ([2]; Homo sapiens): > 100 µM

S=C(NCCN(CCNC(=S)Nc1ccc(Cl)cc1)C(=S)Nc1ccc(Cl)cc1)Nc1ccc(Cl)cc1 [Compound 3, 3-(4-chlorophenyl)-1,1-bis{2-[3-(4-chlorophenyl)thioureido]ethyl}thiourea]
late apoptosis (A549 cells): 23.5%
IC50 ([1]; Homo sapiens): 29.9 ± 1.8 µM
decrease of the IL-6 concentration ([5]; versus control): 1.7 times
LDH release ([6]; 100 µM): 13.8%
IC50 [3]: 27.7 ± 3.7 µM
SI (Selectivity Index) [3]: 1.08
IC50 [4]: 22.6 to 27.7 µM
IC50 (HTB-140 cells (melanoma); Homo sapiens): 22.6 ± 2 µM
SI (Selectivity Index) (HTB-140 cells (melanoma)): 1.32
IC50 ([2]; Homo sapiens): 25 ± 2.4 µM
SI (Selectivity Index) [2]: 1.19

S=C(NCCN(CCNC(=S)Nc1ccc(Br)cc1)C(=S)Nc1ccc(Br)cc1)Nc1ccc(Br)cc1 [Compound 4, 3-(4-bromophenyl)-1,1-bis{2-[3-(4-bromophenyl)thioureido]ethyl}thiourea]
late apoptosis (A549 cells): 26.7%
IC50 ([1]; Homo sapiens): 19.3 ± 3.5 µM
early apoptosis (HTB-140 cells): 28.6%
inhibition of interleukin release as compared to the control, in words [5]: tenfold
IC50 [3]: 17.2 ± 1.9 µM
SI (Selectivity Index) [3]: 1.12
IC50 (HTB-140 cells (melanoma); Homo sapiens): 14.7 ± 1.5 µM
SI (Selectivity Index) (HTB-140 cells (melanoma)): 1.35
IC50 ([2]; Homo sapiens): 16.8 ± 1.9 µM
SI (Selectivity Index) [2]: 1.15

Fc1ccc(NC(=S)NCCN(CCNC(=S)Nc2ccc(F)c(Cl)c2)C(=S)Nc2ccc(F)c(Cl)c2)cc1Cl [Compound 5, 3-(3-chloro-4-fluorophenyl)-1,1-bis{2-[3-(3-chloro-4-fluorophenyl)thioureido]ethyl}thiourea]
late apoptosis (A549 cells): 42.7%
IC50 ([1]; Homo sapiens): 18.8 ± 4.3 µM
IC50 [3]: 17.9 ± 2.8 µM
SI (Selectivity Index) [3]: 1.05
IC50 (HTB-140 cells (melanoma); Homo sapiens): 14.8 ± 3.2 µM
SI (Selectivity Index) (HTB-140 cells (melanoma)): 1.27
IC50 ([2]; Homo sapiens): 15.4 ± 2.1 µM
SI (Selectivity Index) [2]: 1.21
late apoptosis (CaCo-2 cells): 32.8%

S=C(NCCc1ccccc1)NCCN(CCNC(=S)NCCc1ccccc1)C(=S)NCCc1ccccc1 [Compound 6, 3-phenethyl-1,1-bis[2-(3-phenethylthioureido)ethyl]thiourea]
LDH secretion [7]: 8.09–10.4%
late apoptosis (A549 cells): 37.8%
IC50 ([1]; Homo sapiens): 16.1 ± 5.7 µM
LDH release ([6]; 50 µM): 8.3%
LDH release ([6]; 100 µM): 17.9%
IC50 [3]: 15.7 ± 1.7 µM
SI (Selectivity Index) [3]: 1.02
IC50 [4]: 14 to 15.7 µM
IC50 (HTB-140 cells (melanoma); Homo sapiens): 14 ± 2.5 µM
SI (Selectivity Index) (HTB-140 cells (melanoma)): 1.16
IC50 ([2]; Homo sapiens): 15 ± 1.7 µM
SI (Selectivity Index) [2]: 1.08
early apoptosis (CaCo-2 cells): 55.7%
inhibition of IL-6 secretion, in words [8]: two-fold

COc1ccc(NC(=S)N(CCNc2nnnn2-c2ccc(OC)cc2)CCNc2nnnn2-c2ccc(OC)cc2)cc1 [Compound 7, 3-(4-methoxyphenyl)-1,1-bis(2-{[1-(4-methoxyphenyl)-1H-tetrazol-5-yl]amino}ethyl)thiourea]
IC50 ([1]; Homo sapiens): > 100 µM
IC50 [3]: > 100 µM
antiproliferative / cytotoxic activity in words [4]: biologically inactive
IC50 (HTB-140 cells (melanoma); Homo sapiens): > 100 µM
IC50 ([2]; Homo sapiens): > 100 µM

COc1cccc2c1C(=O)c1c(O)c3c(c(O)c1C2=O)C[C@@](O)(C(=O)CO)C[C@@H]3O[C@H]1C[C@H](N)[C@H](O)[C@H](C)O1 [Doxorubicin, reference compound]
IC50 ([1]; Homo sapiens): 1.09 ± 0.23 µM
IC50 [3]: 0.53 ± 0.23 µM
SI (Selectivity Index) [3]: 2.06
IC50 (HTB-140 cells (melanoma); Homo sapiens): 0.47 ± 0.18 µM
SI (Selectivity Index) (HTB-140 cells (melanoma)): 2.32
IC50 ([2]; Homo sapiens): 0.63 ± 0.21 µM
SI (Selectivity Index) [2]: 1.73
